In patent US11179390B2, “Subcutaneous administration of a P2Y12 receptor antagonist” (Idorsia Pharmaceuticals Ltd, priority 2017, dated 2021):
Like-named read-outs stand apart in the source and are kept apart here.

Experiments:
[1] = tested on: FeCl3 rat thrombosis model; details: compared with Ticagrelor; cited from earlier work
[2] = oral administration of Compound 1 or its prodrug, clinical phase I study; cited from earlier work
[3] = Plasma pharmacokinetics after single subcutaneous doses, clinical phase I study; type: in vivo, human (healthy male subjects); details: male, human, sc, N = 6, plasma; for half-life: read-out: t1/2, G.M. (converted); for Tmax: read-out: tmax, Median
Experimental: (§1) The time- and dose-dependency of plasma concentration and inhibition of platelet aggregation (IPA) after subcutaneous administration of Compound 1 was investigated in a clinical phase I study in healthy male subjects.
(§2) In a randomized, double-blind, placebo-controlled study, 48 subjects in fasted condition were exposed to single, subcutaneous doses ranging from 1 to 32 mg (1 mg, 2 mg, 4 mg, 8 mg, 16 mg and 32 mg) of Compound 1 (n=6 on Compound 1 and n=2 on placebo per dose level).
(§3) Compound 1 for s.c. administration was available as sealed glass vials at the strength of 20 mg. The vials contained lyophilized Compound 1 to be reconstituted with 1 mL of water for injection to prepare stock solutions of 20 mg/mL (see above: Formulation of Compound 1 (higher dose of 20 mg/mL)). These stock solutions were further diluted with 0.9% sodium chloride to prepare 2, 4, 8, 16, and 20 mg/mL solutions. The volume injected was 0.5 mL for dose levels 1, 2, 4, and 8 mg. For dose levels 16 and 32 mg, 1 or 2 injection(s) of 0.8 mL from the 20 mg/mL solution was (were) performed.
(§4) The solution for injection was prepared for administration in a syringe suitable for s.c. injection. The solution was administered as injection(s) in the thigh.
The plasma PK parameters of Compound 1 were derived by non-compartmental analysis of the plasma concentration-time profiles. The following parameters were obtained:
maximum plasma concentration (Cmax); time to reach Cmax (tmax); area under the plasma concentration-time curve (AUC) from zero to time t of the last measured concentration above the limit of quantification (AUC0−t); and terminal elimination half-life (t1/2).
Blood was collected by direct venipuncture or via an i.v. catheter placed in an antecubital vein in the arm in a 4 mL Monovette® or equivalent tube containing ethylene diamine tetra-acetic acid. Immediately following collection of the required blood volume, the Monovettes® were slowly tilted backwards and forwards (no shaking) to bring the anticoagulant into solution, and immediately cooled on ice. Within 30 min of collection, the Monovettes® were centrifuged at approximately 1500 g for 10 min at 4° C. The plasma was transferred into one labeled polypropylene tube to avoid carry-over of erythrocytes. All samples were stored in an upright position below −70° C.
The analysis of Compound 1 in plasma was performed using a validated liquid chromatography coupled to tandem mass spectrometry assay. The lower limit of quantification (LLOQ) was 1 ng/mL. Concentrations were calculated by interpolation from a calibration curve. Quality control (QC) samples were analyzed throughout the study. Their measured concentrations were used to determine between-run and overall precision and accuracy of the analysis.

[4] = Solubility in aqueous media; type: physicochemical; details: lyophilized disodium salt of Compound 1, reconstituted in water, pH=8.4
[5] = tested on: Adenosine diphosphate (ADP)-induced platelet aggregation; test: Inhibition of platelet aggregation (IPA), LTA assay, after single subcutaneous doses, clinical phase I study; type: in vivo, human (healthy male subjects); details: for % IPA (inhibition of platelet aggregation) calculated using maximum platelet aggregation values, mean ± SD: N = 6, 20 μM ADP
Experimental: as §1, §2, §3, §4
PD blood samples were collected by direct venipuncture or via an i.v. catheter placed in an antecubital vein in the arm, using 18-21 gauge needles. The first 2 mL of blood were discarded, and, thereafter, blood was drawn gently into two open 3.5 mL collection tubes. Collection tubes for LTA (light transmission aggregometry) assays contained phenylalanine-proline-arginine-cholormethylketone (PPACK) as an anticoagulant.
Adenosine diphosphate (ADP)-induced platelet aggregation was evaluated by a LTA assay measuring platelet-induced aggregation as an increase in light transmittance (Michelson A D, Methods for the measurement of platelet function (2009) Am J Cardiol 103(3):20A-26A).
LTA assay: The two 3.5 mL blood samples were centrifuged to prepare platelet-rich plasma (PRP) and platelet-poor plasma (PPP). If needed, PRP was adjusted to a final platelet count of 260×10^9 platelets per liter by dilution with PPP from the same donor. The assay was performed with an 8-channel platelet aggregometer, recording the aggregation after addition of 20 μM ADP as agonist for 6 min. The results are expressed as percent change in light transmittance at maximum (peak) platelet aggregation (MPA), calculated relative to the baseline signal of 0%. The measurements were performed in duplicate.

CCCCOC(=O)N1CCN(C(=O)[C@H](CP(=O)(O)O)NC(=O)c2cc(N3CC[C@H](OC)C3)nc(-c3ccccc3)n2)CC1 [Compound 1, 4-((R)-2-{[6-((S)-3-methoxy-pyrrolidin-1-yl)-2-phenyl-pyrimidine-4-carbonyl]-amino}-3-phosphono-propionyl)-piperazine-1-carboxylic acid butyl ester]
therapeutic window [1]: significantly wider therapeutic window even than Ticagrelor | bleeding events [2]: No bleeding events were observed | AUC(0-t) ([3]; 1 mg s.c. single dose): 0.0561 µg·h/mL | Cmax ([3]; 1 mg s.c. single dose): 0.0337 µg/mL | half-life ([3]; 1 mg s.c. single dose): 1.34 h | Tmax ([3]; 1 mg s.c. single dose): 0.5 h | AUC(0-t) ([3]; 2 mg s.c. single dose): 0.116 µg·h/mL | Cmax ([3]; 2 mg s.c. single dose): 0.0584 µg/mL | half-life ([3]; 2 mg s.c. single dose): 1.92 h | Tmax ([3]; 2 mg s.c. single dose): 0.5 h | AUC(0-t) ([3]; 4 mg s.c. single dose): 0.261 µg·h/mL | Cmax ([3]; 4 mg s.c. single dose): 0.128 µg/mL | half-life ([3]; 4 mg s.c. single dose): 2.66 h | Tmax ([3]; 4 mg s.c. single dose): 0.5 h | AUC(0-t) ([3]; 8 mg s.c. single dose): 0.585 µg·h/mL | Cmax ([3]; 8 mg s.c. single dose): 0.273 µg/mL | half-life ([3]; 8 mg s.c. single dose): 3.98 h | Tmax ([3]; 8 mg s.c. single dose): 0.5 h | AUC(0-t) ([3]; 16 mg s.c. single dose): 1.12 µg·h/mL | Cmax ([3]; 16 mg s.c. single dose): 0.435 µg/mL | half-life ([3]; 16 mg s.c. single dose): 7.2 h | Tmax ([3]; 16 mg s.c. single dose): 0.75 h | AUC(0-t) ([3]; 32 mg s.c. single dose): 2.34 µg·h/mL | Cmax ([3]; 32 mg s.c. single dose): 0.93 µg/mL | half-life ([3]; 32 mg s.c. single dose): 9.2 h | Tmax ([3]; 32 mg s.c. single dose): 0.75 h | solubility [4]: 75 mg/mL | % IPA (inhibition of platelet aggregation) calculated using maximum platelet aggregation values, mean ± SD ([5]; 1 mg s.c., 0.25 h): 61.4 ± 15.1% | % IPA (inhibition of platelet aggregation) calculated using maximum platelet aggregation values, mean ± SD ([5]; 1 mg s.c., 0.5 h): 64.4 ± 12.8% | % IPA (inhibition of platelet aggregation) calculated using maximum platelet aggregation values, mean ± SD ([5]; 1 mg s.c., 3 h): 15.8 ± 20.0% | % IPA (inhibition of platelet aggregation) calculated using maximum platelet aggregation values, mean ± SD ([5]; 1 mg s.c., 4 h): −10.0 ± 24.2% | % IPA (inhibition of platelet aggregation) calculated using maximum platelet aggregation values, mean ± SD ([5]; 1 mg s.c., 5 h): −6.1 ± 26.0% | % IPA (inhibition of platelet aggregation) calculated using maximum platelet aggregation values, mean ± SD ([5]; 1 mg s.c., 12 h): −4.5 ± 24.7% | % IPA (inhibition of platelet aggregation) calculated using maximum platelet aggregation values, mean ± SD ([5]; 1 mg s.c., 48 h): −47.7 ± 29.9% | % IPA (inhibition of platelet aggregation) calculated using maximum platelet aggregation values, mean ± SD ([5]; 2 mg s.c., 0.25 h): 60.3 ± 48.3% | % IPA (inhibition of platelet aggregation) calculated using maximum platelet aggregation values, mean ± SD ([5]; 2 mg s.c., 0.5 h): 79.5 ± 10.8% | % IPA (inhibition of platelet aggregation) calculated using maximum platelet aggregation values, mean ± SD ([5]; 2 mg s.c., 3 h): 36.8 ± 30.0% | % IPA (inhibition of platelet aggregation) calculated using maximum platelet aggregation values, mean ± SD ([5]; 2 mg s.c., 4 h): 35.5 ± 18.9% | % IPA (inhibition of platelet aggregation) calculated using maximum platelet aggregation values, mean ± SD ([5]; 2 mg s.c., 5 h): 14.1 ± 28.4% | % IPA (inhibition of platelet aggregation) calculated using maximum platelet aggregation values, mean ± SD ([5]; 2 mg s.c., 12 h): 31.3 ± 28.9% | % IPA (inhibition of platelet aggregation) calculated using maximum platelet aggregation values, mean ± SD ([5]; 2 mg s.c., 48 h): 11.3 ± 38.5% | % IPA (inhibition of platelet aggregation) calculated using maximum platelet aggregation values, mean ± SD ([5]; 4 mg s.c., 0.25 h): 79.7 ± 6.0% | % IPA (inhibition of platelet aggregation) calculated using maximum platelet aggregation values, mean ± SD ([5]; 4 mg s.c., 0.5 h): 84.7 ± 5.4% | % IPA (inhibition of platelet aggregation) calculated using maximum platelet aggregation values, mean ± SD ([5]; 4 mg s.c., 3 h): 58.5 ± 7.2% | % IPA (inhibition of platelet aggregation) calculated using maximum platelet aggregation values, mean ± SD ([5]; 4 mg s.c., 4 h): 50.6 ± 22.1% | % IPA (inhibition of platelet aggregation) calculated using maximum platelet aggregation values, mean ± SD ([5]; 4 mg s.c., 5 h): 47.9 ± 17.9% | % IPA (inhibition of platelet aggregation) calculated using maximum platelet aggregation values, mean ± SD ([5]; 4 mg s.c., 12 h): 37.4 ± 16.7% | % IPA (inhibition of platelet aggregation) calculated using maximum platelet aggregation values, mean ± SD ([5]; 4 mg s.c., 48 h): 2.1 ± 16.3% | % IPA (inhibition of platelet aggregation) calculated using maximum platelet aggregation values, mean ± SD ([5]; 8 mg s.c., 0.25 h): 88.9 ± 8.4% | % IPA (inhibition of platelet aggregation) calculated using maximum platelet aggregation values, mean ± SD ([5]; 8 mg s.c., 0.5 h): 90.0 ± 8.5% | % IPA (inhibition of platelet aggregation) calculated using maximum platelet aggregation values, mean ± SD ([5]; 8 mg s.c., 3 h): 77.9 ± 19.5% | % IPA (inhibition of platelet aggregation) calculated using maximum platelet aggregation values, mean ± SD ([5]; 8 mg s.c., 4 h): 70.9 ± 12.5% | % IPA (inhibition of platelet aggregation) calculated using maximum platelet aggregation values, mean ± SD ([5]; 8 mg s.c., 5 h): 75.2 ± 11.5% | % IPA (inhibition of platelet aggregation) calculated using maximum platelet aggregation values, mean ± SD ([5]; 8 mg s.c., 12 h): 64.0 ± 10.4% | % IPA (inhibition of platelet aggregation) calculated using maximum platelet aggregation values, mean ± SD ([5]; 8 mg s.c., 48 h): −1.3 ± 33.7% | duration for which mean % IPA≥85% was sustained post administration ([5]; 16 mg s.c.): approximately 5 h | % IPA (inhibition of platelet aggregation) calculated using maximum platelet aggregation values, mean ± SD ([5]; 16 mg s.c., 0.25 h): 92.8 ± 5.5% | % IPA (inhibition of platelet aggregation) calculated using maximum platelet aggregation values, mean ± SD ([5]; 16 mg s.c., 0.5 h): 93.1 ± 3.6% | % IPA (inhibition of platelet aggregation) calculated using maximum platelet aggregation values, mean ± SD ([5]; 16 mg s.c., 3 h): 95.0 ± 1.2% | % IPA (inhibition of platelet aggregation) calculated using maximum platelet aggregation values, mean ± SD ([5]; 16 mg s.c., 4 h): 88.2 ± 4.7% | % IPA (inhibition of platelet aggregation) calculated using maximum platelet aggregation values, mean ± SD ([5]; 16 mg s.c., 5 h): 87.6 ± 5.5% | % IPA (inhibition of platelet aggregation) calculated using maximum platelet aggregation values, mean ± SD ([5]; 16 mg s.c., 12 h): 76.0 ± 13.8% | % IPA (inhibition of platelet aggregation) calculated using maximum platelet aggregation values, mean ± SD ([5]; 16 mg s.c., 48 h): −1.6 ± 43.8% | duration for which mean % IPA≥85% was sustained post administration ([5]; 32 mg s.c.): ~12 h | % IPA (inhibition of platelet aggregation) calculated using maximum platelet aggregation values, mean ± SD ([5]; 32 mg s.c., 0.25 h): 95.5 ± 2.7% | % IPA (inhibition of platelet aggregation) calculated using maximum platelet aggregation values, mean ± SD ([5]; 32 mg s.c., 0.5 h): 94.5 ± 2.0% | % IPA (inhibition of platelet aggregation) calculated using maximum platelet aggregation values, mean ± SD ([5]; 32 mg s.c., 3 h): 94.5 ± 2.0% | % IPA (inhibition of platelet aggregation) calculated using maximum platelet aggregation values, mean ± SD ([5]; 32 mg s.c., 4 h): 91.2 ± 1.9% | % IPA (inhibition of platelet aggregation) calculated using maximum platelet aggregation values, mean ± SD ([5]; 32 mg s.c., 5 h): 92.1 ± 2.6% | % IPA (inhibition of platelet aggregation) calculated using maximum platelet aggregation values, mean ± SD ([5]; 32 mg s.c., 12 h): 83.5 ± 12.9% | % IPA (inhibition of platelet aggregation) calculated using maximum platelet aggregation values, mean ± SD ([5]; 32 mg s.c., 48 h): 29.8 ± 20.9% | time post dosing at which peak % IPA was achieved ([5]; at each dose level (1 to 32 mg s.c.)): 15 to 30 min | peak % IPA ([5]; doses ≥4 mg s.c.): exceeded 85% | peak % IPA ([5]; doses ≥8 mg s.c.): exceeded 85% | time in which peak % IPA exceeded 85% ([5]; doses ≥8 mg s.c.): less than 15 min
